Tests used:
[1] = tested on: dd-strain male mice; assay: Acute toxicity test (minimum lethal dose, oral); type: in vivo; details: oral administration, three mice per group, mortality seven days after administration
Protocol: Test compounds were orally administered to groups of dd-strain male mice weighing 20 ± 1 g, each group consisting of three mice. Seven days after the administration, minimum lethal dose (MLD) of each compound was determined by observing the mortality.

[2] = biological target: T1, A₂ receptor (Rattus norvegicus, UniProt P30543); assay: Adenosine A₂ receptor binding test (³H-NECA binding); details: ³H-NECA binding, rat corpus striatum, read-out: Inhibition (%) A₂ Receptor; for inhibition at 1 µM: 10⁻⁶M; for inhibition at 0.1 µM: 10⁻⁷M; for inhibition at 100 µM: 10⁻⁴M; for inhibition at 10 µM: 10⁻⁵M
T1 construct: from tissue; host or cells: rat corpus striatum membrane preparation
T1 sequence (P30543 whole entry): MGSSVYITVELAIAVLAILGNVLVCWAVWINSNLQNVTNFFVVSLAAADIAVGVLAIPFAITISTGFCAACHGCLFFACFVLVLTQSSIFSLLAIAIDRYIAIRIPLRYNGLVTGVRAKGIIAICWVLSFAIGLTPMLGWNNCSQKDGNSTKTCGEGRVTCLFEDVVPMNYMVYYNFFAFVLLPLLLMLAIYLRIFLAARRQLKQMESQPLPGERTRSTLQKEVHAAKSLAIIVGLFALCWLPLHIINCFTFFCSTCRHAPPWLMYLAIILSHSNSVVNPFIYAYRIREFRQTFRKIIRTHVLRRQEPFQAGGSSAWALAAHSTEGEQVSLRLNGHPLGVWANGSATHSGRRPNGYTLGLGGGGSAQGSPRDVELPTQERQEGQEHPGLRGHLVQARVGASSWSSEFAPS
Protocol: The similar procedure as in the above-described adenosine A₁ receptor binding test was repeated using rat corpus striatum to obtain the final precipitate of the tissue thereof. The precipitate was suspended in 50 mM Tris HCl buffer containing 10 mM magnesium chloride and 0.02 unit/mg tissue of adenosine deaminase (manufactured by Sigma Co.) to give a tissue concentration of 5 mg (wet weight)/ml.
The mixture solution was allowed to stand at 25°C for 120 minutes and then treated in the same manner as in the adenosine A₁ receptor binding test to determine the radioactivity bound to the A₂ receptors.
The inhibition rate of the test compound against the binding of A₂ receptor (³H-NECA binding) was calculated by the following equation: [formula] [Notes] • 1.

SMILES | MLD [1] [mg/kg] | further results
CCn1c(=O)c2[nH]c(/C=C/c3cc(C(F)(F)F)cc(C(F)(F)F)c3)nc2n(CC)c1=O [Compound 85, (E)-8-[3,5-Bis(trifluoromethyl)styryl]-1,3-diethylxanthine] | > 100 | 
CCn1c(=O)c2c(nc(/C=C/c3cccc(F)c3)n2C)n(CC)c1=O [Compound 66, (E)-1,3-Diethyl-8-(3-fluorostyryl)-7-methylxanthine] | > 300 | inhibition at 1 µM [2]: 93%; inhibition at 0.1 µM [2]: 78%
CCn1c(=O)c2c(nc(/C=C/c3ccc(OC)c(O)c3)n2C)n(CC)c1=O [Compound 111, (E)-1,3-Diethyl-8-(3-hydroxy-4-methoxystyryl)-7-methylxanthine] | > 100 | 
CCn1c(=O)c2c(nc(/C=C/c3ccc(OCCCCN)cc3)n2C)n(CC)c1=O [Compound 116, (E)-8-[4-(4-Aminobutoxy)styryl]-1,3-diethyl-7-methylxanthine] | > 100 | 
CCn1c(=O)c2[nH]c(/C=C/c3cc(C)c(OC)cc3C)nc2n(CC)c1=O [Compound 11, (E)-1,3-Diethyl-8-(4-methoxy-2,5-dimethylstyryl)xanthine] | > 300 | 
CCn1c(=O)c2c(nc(/C=C/c3cc(F)cc(F)c3)n2C)n(CC)c1=O [Compound 88, (E)-8-(3,5-Difluorostyryl)-1,3-diethyl-7-methylxanthine] | > 100 | 
COc1cccc(/C=C/c2nc3c(c(=O)n(C)c(=O)n3C)n2C)c1OC [Compound 26, (E)-8-(2,3-Dimethoxystyryl)caffeine] | > 300 | inhibition at 100 µM [2]: 79%; inhibition at 10 µM [2]: 75%; inhibition at 1 µM [2]: 59%; inhibition at 0.1 µM [2]: 27%
CCn1c(=O)c2c(nc(/C(C)=C/c3ccccc3)n2C)n(CC)c1=O [Compound 72, (E)-1,3-Diethyl-7-methyl-8-(α-methylstyryl)xanthine] | > 300 | 
COc1ccc(/C=C/c2nc3c([nH]2)c(=O)n(C)c(=O)n3C)cc1Br [Compound 57, (E)-8-(3-Bromo-4-methoxystyryl)theophylline] | > 100 | 
CCn1c(=O)c2[nH]c(/C=C/c3ccc(N(C)C)cc3)nc2n(CC)c1=O [Compound 99, (E)-8-[4-(N,N-Dimethylamino)styryl]-1,3-diethylxanthine] | > 100 | inhibition at 1 µM [2]: 64%; inhibition at 0.1 µM [2]: 25%
CCn1c(=O)c2[nH]c(/C=C/c3cc(OC)c(OC)cc3Br)nc2n(CC)c1=O [Compound 59, (E)-8-(2-Bromo-4,5-dimethoxystyryl)-1,3-diethylxanthine] | > 100 | 
CCn1c(=O)c2[nH]c(/C=C/c3cc(C)ccc3C)nc2n(CC)c1=O [Compound 33, (E)-8-(2,5-Dimethylstyryl)-1,3-diethylxanthine] | > 300 | inhibition at 100 µM [2]: 92%; inhibition at 10 µM [2]: 93%
CCn1c(=O)c2c(nc(/C=C/c3cc(OC)c(OC)cc3Br)n2C)n(CC)c1=O [Compound 60, (E)-8-(2-Bromo-4,5-dimethoxystyryl)-1,3-diethyl-7-methylxanthine] | > 100 | inhibition at 100 µM [2]: 84%; inhibition at 10 µM [2]: 75%
CCn1c(=O)c2[nH]c(/C=C/c3ccccc3OC)nc2n(CC)c1=O [Compound 45, (E)-1,3-Diethyl-8-(2-methoxystyryl)xanthine] | > 100 | 
CCOC(=O)COc1ccc(/C=C/c2nc3c(c(=O)n(CC)c(=O)n3CC)n2C)cc1 [Compound 117, (E)-8-(4-Ethoxycarbonylmethoxystyryl)-1,3-diethyl-7-methylxanthine] | > 100 | 
COc1ccc(/C=C/c2nc3c(c(=O)n(C)c(=O)n3C)n2C)cc1Br [Compound 58, (E)-8-(3-Bromo-4-methoxystyryl)caffeine] | > 300 | inhibition at 100 µM [2]: 78%; inhibition at 10 µM [2]: 84%
COc1ccc(/C=C/c2nc3c([nH]2)c(=O)n(C)c(=O)n3C)c(OC)c1 [Compound 27, (E)-8-(2,4-Dimethoxystyryl)theophylline] | > 100 | inhibition at 100 µM [2]: 90%; inhibition at 10 µM [2]: 89%
CCn1c(=O)c2[nH]c(/C=C/c3ccc(O)cc3)nc2n(CC)c1=O [Compound 121, (E)-1,3-Diethyl-8-(4-hydroxystyryl)xanthine] | > 100 | 
CCn1c(=O)c2c(nc(/C=C/c3ccc(O)c(C)c3C)n2C)n(CC)c1=O [Compound 122, (E)-1,3-Diethyl-8-(4-hydroxy-2,3-dimethylstyryl)-7-methylxanthine] | > 100 | 
CCn1c(=O)c2[nH]c(/C=C/c3ccc(F)c(Cl)c3)nc2n(CC)c1=O [Compound 104, (E)-8-(3-Chloro-4-fluorostyryl)-1,3-diethylxanthine] | > 100 | 

SMILES | MLD [1] [mg/kg] | further results
CCn1c(=O)c2c(nc(/C=C/c3cc(OC)c(OC)cc3[N+](=O)[O-])n2C)n(CC)c1=O [Compound 62, (E)-8-(4,5-Dimethoxy-2-nitrostyryl)-1,3-diethyl-7-methylxanthine] | > 300 | 
CCn1c(=O)c2[nH]c(/C=C/c3ccc(F)c(F)c3)nc2n(CC)c1=O [Compound 53, (E)-8-(3,4-Difluorostyryl)-1,3-diethylxanthine] | > 300 | 
CCn1c(=O)c2c(nc(/C=C/c3ccccc3OC)n2C)n(CC)c1=O [Compound 46, (E)-1,3-Diethyl-8-(2-methoxystyryl)-7-methylxanthine] | > 100 | 
CCn1c(=O)c2[nH]c(/C=C/c3ccc(C(F)(F)F)cc3)nc2n(CC)c1=O [Compound 73, (E)-1,3-Diethyl-8-(4-trifluoromethylstyryl)xanthine] | > 100 | 
CCn1c(=O)c2[nH]c(/C(F)=C\c3ccccc3)nc2n(CC)c1=O [Compound 75, (E)-1,3-Diethyl-8-(α-fluorostyryl)xanthine] | > 100 | 
CCn1c(=O)c2[nH]c(/C=C/c3cccc(Cl)c3)nc2n(CC)c1=O [Compound 69, (E)-8-(3-Chlorostyryl)-1,3-diethylxanthine] | > 100 | 
CCn1c(=O)c2[nH]c(/C=C/c3cccc(F)c3)nc2n(CC)c1=O [Compound 65, (E)-1,3-Diethyl-8-(3-fluorostyryl)xanthine] | > 100 | inhibition at 1 µM [2]: 64%; inhibition at 0.1 µM [2]: 64%
COc1cccc(/C=C/c2nc3c(=O)n(C)c(=O)n(C)c3[nH]2)c1OC [Compound 25, (E)-8-(2,3-Dimethoxystyryl)theophylline] | > 100 | inhibition at 100 µM [2]: 70%; inhibition at 10 µM [2]: 76%
CCn1c(=O)c2[nH]c(/C=C/c3ccc(OC)c(Br)c3)nc2n(CC)c1=O [Compound 55, (E)-8-(3-Bromo-4-methoxystyryl)-1,3-diethylxanthine] | > 100 | inhibition at 100 µM [2]: 81%; inhibition at 10 µM [2]: 77%; inhibition at 1 µM [2]: 65%; inhibition at 0.1 µM [2]: 56%
CCOc1ccc(/C=C/c2nc3c([nH]2)c(=O)n(CC)c(=O)n3CC)cc1 [Compound 35, (E)-8-(4-Ethoxystyryl)-1,3-diethylxanthine] | > 100 | inhibition at 1 µM [2]: 71%; inhibition at 0.1 µM [2]: 54%
CCn1c(=O)c2[nH]c(/C=C/c3cccc(OC)c3OC)nc2n(CC)c1=O [Compound 3, (E)-8-(2,3-Dimethoxystyryl)-1,3-diethylxanthine] | > 300 | 
CCn1c(=O)c2c(nc(/C=C/c3ccc(OCC(=O)O)cc3)n2C)n(CC)c1=O [Compound 118, (E)-8-(4-Carboxymethoxystyryl)-1,3-diethyl-7-methylxanthine] | > 100 | 
COc1ccc(/C=C/c2nc3c([nH]2)c(=O)n(C)c(=O)n3C)c(Cl)c1OC [Compound 51, (E)-8-(2-Chloro-3,4-dimethoxystyryl)theophylline] | > 100 | inhibition at 100 µM [2]: 91%; inhibition at 10 µM [2]: 88%
CCn1c(=O)c2[nH]c(/C(C)=C/c3ccccc3)nc2n(CC)c1=O [Compound 71, (E)-1,3-Diethyl-8-(α-methylstyryl)xanthine] | > 100 | 
COc1cc(C)c(/C=C/c2nc3c(c(=O)n(C)c(=O)n3C)n2C)cc1C [Compound 30, (E)-8-(4-Methoxy-2,5-dimethylstyryl)caffeine] | > 100 | 
CCn1c(=O)c2[nH]c(/C=C/c3ccc(OC)cc3OC)nc2n(CC)c1=O [Compound 5, (E)-8-(2,4-Dimethoxystyryl)-1,3-diethylxanthine] | > 100 | 
CCn1c(=O)c2[nH]c(/C=C/c3cc(OC)c(OC)cc3[N+](=O)[O-])nc2n(CC)c1=O [Compound 61, (E)-8-(4,5-Dimethoxy-2-nitrostyryl)-1,3-diethylxanthine] | > 100 | 
COc1cc(C)c(/C=C/c2nc3c([nH]2)c(=O)n(C)c(=O)n3C)cc1C [Compound 29, (E)-8-(4-Methoxy-2,5-dimethylstyryl)theophylline] | > 100 | 
CCn1c(=O)c2[nH]c(/C=C/c3cccc(Oc4ccccc4)c3)nc2n(CC)c1=O [Compound 119, (E)-1,3-Diethyl-8-(3-phenoxystyryl)xanthine] | > 100 | 
CCn1c(=O)c2[nH]c(/C=C/c3ccc(-c4ccccc4)cc3)nc2n(CC)c1=O [Compound 100, (E)-1,3-Diethyl-8-(4-phenylstyryl)xanthine] | > 100 | 

Reference: patent EP0590919A1, “Therapeutic agents for parkinson's disease” (KYOWA HAKKO KOGYO CO., LTD., priority 1992, dated 1994)
